The target in one test is T1, GAL4-PPARδ LBD (Homo sapiens, UniProt Q03181).
T1 construct: chimeric receptors containing the LBD of various NRs; expressed in transfected cells; host or cells: HEK293
T1 sequence (Q03181 211-439 limits assumed): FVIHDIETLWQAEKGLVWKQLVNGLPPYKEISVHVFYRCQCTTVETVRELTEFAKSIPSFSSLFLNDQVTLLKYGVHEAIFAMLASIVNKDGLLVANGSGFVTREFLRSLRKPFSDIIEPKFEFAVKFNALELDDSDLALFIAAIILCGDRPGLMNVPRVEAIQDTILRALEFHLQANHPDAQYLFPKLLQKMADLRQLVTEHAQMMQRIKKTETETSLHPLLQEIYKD
Kind of test: GAL4-PPARδ LBD luciferase reporter assay in HEK293 cells. As to conditions: for EC50: GAL4-PPARδ LBD, calculated from luciferase activity with Quest Graph EC50 Calculator; for PPARδ activation compared with dietary PUFAs (in words): 30 μM fatty acids, Fig. 2A; for PPARδ activation (in words): 100 μM fatty acids, Fig. 1B. The test is classed as cell-based.

The next test deals with T2, VP16-PPARδ / GAL4-SRC-1 (Homo sapiens, UniProt Q03181).
T2 construct: expressed in transfected cells; host or cells: HEK293
T2 sequence (Q03181 1-441): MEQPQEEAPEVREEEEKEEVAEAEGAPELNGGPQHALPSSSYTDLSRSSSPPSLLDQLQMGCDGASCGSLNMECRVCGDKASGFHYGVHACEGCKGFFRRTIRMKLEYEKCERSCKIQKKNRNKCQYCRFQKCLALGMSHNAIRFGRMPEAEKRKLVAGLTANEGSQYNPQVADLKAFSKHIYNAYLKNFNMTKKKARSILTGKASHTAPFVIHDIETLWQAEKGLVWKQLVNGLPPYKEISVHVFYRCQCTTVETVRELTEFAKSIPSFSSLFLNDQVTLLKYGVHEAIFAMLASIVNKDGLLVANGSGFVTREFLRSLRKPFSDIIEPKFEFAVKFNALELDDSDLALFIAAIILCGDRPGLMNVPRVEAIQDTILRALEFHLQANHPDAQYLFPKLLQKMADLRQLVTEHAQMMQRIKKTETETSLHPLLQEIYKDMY
T2 sequence (Q15788 595-771 partner limits assumed): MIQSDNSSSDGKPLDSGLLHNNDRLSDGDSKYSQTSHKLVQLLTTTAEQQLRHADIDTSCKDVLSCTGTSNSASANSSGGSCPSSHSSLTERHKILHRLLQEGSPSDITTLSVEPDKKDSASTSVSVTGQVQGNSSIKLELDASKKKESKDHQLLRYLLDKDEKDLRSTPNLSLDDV
Nature of the test: mammalian two-hybrid assay, VP16-PPARδ and coactivator GAL4-SRC-1. The test is classed as cell-based. The following applies: 30 μM fatty acids, 100 nM GW1516, HEK293 cells, Fig. 3A.

A further test concerns the target T3, VP16-PPARα / GAL4-SRC-1 (Homo sapiens, UniProt Q07869).
T3 construct: expressed in transfected cells; host or cells: HEK293
T3 sequence (Q07869 1-468): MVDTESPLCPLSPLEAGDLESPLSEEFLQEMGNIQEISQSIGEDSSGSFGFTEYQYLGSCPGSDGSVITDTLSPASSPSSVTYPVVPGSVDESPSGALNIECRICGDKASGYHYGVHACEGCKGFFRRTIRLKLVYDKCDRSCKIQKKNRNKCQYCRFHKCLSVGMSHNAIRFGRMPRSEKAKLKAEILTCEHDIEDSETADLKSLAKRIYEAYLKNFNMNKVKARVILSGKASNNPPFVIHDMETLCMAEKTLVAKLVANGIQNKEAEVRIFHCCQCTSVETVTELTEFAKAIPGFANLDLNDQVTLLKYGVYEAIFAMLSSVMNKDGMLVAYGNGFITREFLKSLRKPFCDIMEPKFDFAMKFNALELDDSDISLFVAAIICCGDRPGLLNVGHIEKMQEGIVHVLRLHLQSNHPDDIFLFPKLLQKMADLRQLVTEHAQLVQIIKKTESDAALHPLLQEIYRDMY
T3 sequence (Q15788 595-771 partner limits assumed): T2 sequence (Q15788 595-771 partner limits assumed)
Nature of the test: mammalian two-hybrid assay, VP16-PPARα and coactivator GAL4-SRC-1. The format is cell-based. As to conditions: 30 μM fatty acids, 1 μM GW7647, HEK293 cells, Fig. 3B.

The target in the next test is full-length PPARα (Homo sapiens, UniProt Q07869). As to conditions: PPRE luciferase reporter, HEK293 cells, Fig. 1C. A general note: In a reporter assay the amount or activity of a reporter protein is the signal.
The target in a further test is T4, VP16-PPARδ / GAL4-NCoR (Homo sapiens, UniProt Q03181).
T4 construct: expressed in transfected cells; host or cells: HEK293
T4 sequence (Q03181 1-441): T2 sequence (Q03181 1-441)
Kind of test: mammalian two-hybrid assay, VP16-PPARδ and corepressor NCoR. The test is classed as cell-based. The following applies: 30 μM fatty acids, HEK293 cells, Fig. 3C.

The next test has as its target T5, VP16-PPARα / GAL4-NCoR (Homo sapiens, UniProt Q07869).
T5 construct: expressed in transfected cells; host or cells: HEK293
T5 sequence (Q07869 1-468): T3 sequence (Q07869 1-468)
Nature of the test: mammalian two-hybrid assay, VP16-PPARα and corepressor NCoR. The test is classed as cell-based. As to conditions: 30 μM fatty acids, HEK293 cells, Fig. 3D.

Test [1] concerns human intestinal organoids. Kind of test: PPARδ target gene mRNA expression in human intestinal organoids (RT-qPCR). The test is classed as cell-based. The following applies: 1 μM GW1516 or 30 μM fatty acids for 24 h. Background: Real-time PCR tracks product formation cycle by cycle.

The values below come from publication PMC9636582 (The Journal of Biological Chemistry, 2022).

SMILES strings stand for the structures.

Consider `CCCCC/C=C\C/C=C\C/C=C\CCCCC(=O)O` [GLA, γ-linolenic acid, reference compound], for which the EC50 – broadly, the concentration that produces a half-maximal response – at GAL4-PPARδ LBD is 509 µM. In addition, the “recruitment of coactivator SRC-1 to PPARδ” value (“recruitment … to PPARδ” below) at VP16-PPARδ / GAL4-SRC-1 is given as “not”. Further, the “recruitment of coactivator SRC-1 to PPARα” value (“recruitment … to PPARα” below) at VP16-PPARα / GAL4-SRC-1 was “not”. Also, the “transactivation of full-length PPARα (in words)” value at full-length PPARα is listed as “activated almost equally”.
Turning to `CCCCCC(O)CCC=CCC=CCCCCC(=O)O` (stereo not drawn) [γHYD, 13-hydroxy-cis-6,cis-9-octadecadienoic acid], on GAL4-PPARδ LBD, the “PPARδ activation compared with dietary PUFAs (in words)” value was “activated PPARδ more robustly than DHA and eicosapentaenoic acid as well as GLA”; the “PPARδ activation (in words)” value is listed as “more robust PPARδ activation than their original compound, GLA”; the EC50 was 10.6 µM. In addition, the “recruitment … to PPARδ” value on VP16-PPARδ / GAL4-SRC-1 is “induced coactivator-recruitment”. The “recruitment … to PPARα” value at VP16-PPARα / GAL4-SRC-1 is reported as “induced coactivator-recruitment”. For the same molecule, the “interaction between PPARδ and corepressor NCoR” value at VP16-PPARδ / GAL4-NCoR was “reduced the interaction”. Moreover, the “interaction between PPARα and corepressor NCoR” value on VP16-PPARα / GAL4-NCoR was “reduced the interaction”. For the same molecule, the “expression of PPARδ target genes (CPT1A, HMGCS2, PDK4, ACSL1)” value in test [1] is reported as “increased the expression of PPARδ target genes”.
In the case of `CCCCCC(=O)CCC=CCC=CCCCCC(=O)O` [γKetoD, 13-oxo-cis-6,cis-9-octadecadienoic acid], on GAL4-PPARδ LBD, the “PPARδ activation compared with dietary PUFAs (in words)” value was “activated PPARδ more robustly than DHA and eicosapentaenoic acid as well as GLA”; the “PPARδ activation (in words)” value is “more robust PPARδ activation than their original compound, GLA”; the EC50 was 20.3 µM. Also, on VP16-PPARδ / GAL4-SRC-1, the “recruitment … to PPARδ” value was “induced coactivator-recruitment”. On VP16-PPARα / GAL4-SRC-1, the “recruitment … to PPARα” value is listed as “induced coactivator-recruitment”. Further, on VP16-PPARδ / GAL4-NCoR, the “interaction between PPARδ and corepressor NCoR” value is recorded as “reduced the interaction”. In addition, the “interaction between PPARα and corepressor NCoR” value at VP16-PPARα / GAL4-NCoR was “reduced the interaction”. Further, the “expression of PPARδ target genes (CPT1A, HMGCS2, PDK4, ACSL1)” value in test [1] was “increased the expression of PPARδ target genes”.
